Results from ChEMBL document CHEMBL3102727, “Conformationally constrained ortho-anilino diaryl ureas: discovery of 1-(2-(1'-neopentylspiro[indoline-3,4'-piperidine]-1-yl)phenyl)-3-(4-(trifluoromethoxy)phenyl)urea, a potent, selective, and bioavailable P2Y1 antagonist” (J Med Chem, 2013).
≈ marks a conversion by molar mass, not a printed value. Calls of active or inactive are those of the source. The rule behind the calls is not given here.

What was measured:
Rattus norvegicus [1] = assay: Antithrombotic activity in iv dosed FeCl2-induced Sprague-Dawley rat vena cava thrombosis model assessed as reduction of thrombus weight after 60 mins; type: functional, organism-based
L-type calcium channel = L-type calcium channel (Rattus norvegicus, UniProt P22002+P27732+Q02485); assay: Inhibition of rat L-type calcium channel at 10 uM relative to control
[2] = Clearance in dog at 0.2 mg/kg, po and 0.1 mg/kg, iv; type: ADME, organism-based, Canis lupus familiaris; settings: in vivo
P2Y purinoceptor 1 [3] = target: T1, P2Y purinoceptor 1 (Homo sapiens, UniProt P47900); assay: Displacement of [33P]-2MeS-ADP from human P2Y1 receptor expressed in HEK293 cells after 1 hr by scintillation counting analysis; type: cell-based
T1 sequence (P47900 whole entry): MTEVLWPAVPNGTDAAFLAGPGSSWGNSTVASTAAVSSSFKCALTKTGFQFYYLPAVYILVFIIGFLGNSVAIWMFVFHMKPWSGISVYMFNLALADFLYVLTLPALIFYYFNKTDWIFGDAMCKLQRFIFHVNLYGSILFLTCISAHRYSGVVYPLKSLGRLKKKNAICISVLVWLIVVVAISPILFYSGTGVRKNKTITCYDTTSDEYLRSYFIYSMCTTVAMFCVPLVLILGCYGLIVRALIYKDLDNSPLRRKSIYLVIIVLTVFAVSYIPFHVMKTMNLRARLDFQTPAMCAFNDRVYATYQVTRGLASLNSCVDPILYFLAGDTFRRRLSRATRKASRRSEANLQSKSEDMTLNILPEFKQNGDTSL

Rattus norvegicus [4] = assay: Antithrombotic activity in FeCl2-induced Sprague-Dawley rat carotid artery thrombosis model assessed as reduction of thrombus weight at 0.6 mg/kg and 2.25 mg/kg/hr, iv after 60 mins relative to vehicle-treated control; type: functional; design: scale not given: the % may be the effect or the level left
Rattus norvegicus [5] = assay: Antithrombotic activity in FeCl2-induced Sprague-Dawley rat carotid artery thrombosis model assessed as reduction of thrombus weight at 10 mg/kg, po after 60 mins relative to vehicle-treated control; type: functional; design: scale not given: the % may be the effect or the level left
Rattus norvegicus [6] = assay: Antithrombotic activity in po dosed FeCl2-induced Sprague-Dawley rat carotid artery thrombosis model assessed as increase in integrated blood flow measured over 60 mins; type: functional, organism-based
[7] = Oral bioavailability in rat at 0.5 mg/kg; type: ADME, organism-based; settings: in vivo
Rattus norvegicus [8] = assay: Ex vivo antiplatelet activity in Sprague-Dawley rat assessed as inhibition of […] uM ADP-induced platelet aggregation at 3 mg/kg, po after 60 mins relative to vehicle-treated control; type: functional; settings: 1 h
[9] = Fraction unbound in human; type: ADME, organism-based; settings: in vivo
P2X purinoceptor 1 = target: T2, P2X purinoceptor 1 (Homo sapiens, UniProt P51575); assay: Antagonist activity at P2X1 receptor in HEK293 cells assessed as alpha, beta-methylene ATP-induced calcium flux by FLIPR assay; type: cell-based
T2 sequence (P51575 whole entry): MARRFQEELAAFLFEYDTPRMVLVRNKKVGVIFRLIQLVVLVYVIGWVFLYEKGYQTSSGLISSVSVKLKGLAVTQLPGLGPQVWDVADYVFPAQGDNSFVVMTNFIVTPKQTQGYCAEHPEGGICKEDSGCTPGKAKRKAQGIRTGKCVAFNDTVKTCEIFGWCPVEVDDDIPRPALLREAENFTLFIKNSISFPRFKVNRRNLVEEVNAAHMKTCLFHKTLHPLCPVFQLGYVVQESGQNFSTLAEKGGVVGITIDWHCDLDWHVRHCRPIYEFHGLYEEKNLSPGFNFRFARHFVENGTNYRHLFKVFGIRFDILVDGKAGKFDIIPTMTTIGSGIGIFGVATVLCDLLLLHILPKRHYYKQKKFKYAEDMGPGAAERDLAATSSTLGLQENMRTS

Rattus norvegicus [10] = assay: Antithrombotic activity in FeCl2-induced Sprague-Dawley rat carotid artery thrombosis model assessed as integrated blood flow at 0.6 mg/kg and 2.25 mg/kg/hr, iv after 60 mins relative to vehicle-treated control; type: functional
Rattus norvegicus [11] = assay: Induction of mesenteric bleeding time in Sprague-Dawley rat at 0.2 mg/kg and 0.75 mg/kg/hr, iv measured over 10 mins relative to vehicle-treated control; type: organism-based; settings: in vivo
Rattus norvegicus [12] = assay: Antithrombotic activity in FeCl2-induced Sprague-Dawley rat vena cava thrombosis model assessed as reduction of thrombus weight at 0.2 mg/kg and 0.75 mg/kg/hr, iv after 60 mins relative to vehicle-treated control; type: functional; design: scale not given: the % may be the effect or the level left
Rattus norvegicus [13] = assay: Antithrombotic activity in FeCl2-induced Sprague-Dawley rat carotid artery thrombosis model assessed as prevention of vascular occlusion at 0.6 mg/kg and 2.25 mg/kg/hr, iv after 60 mins; type: functional, organism-based
Rattus norvegicus [14] = assay: Induction of mesenteric bleeding time in Sprague-Dawley rat at 0.6 mg/kg and 2.25 mg/kg/hr, iv measured over 10 mins relative to vehicle-treated control; type: organism-based; settings: in vivo
P2Y purinoceptor 2 = P2Y purinoceptor 2 (Homo sapiens, UniProt P41231); assay: Antagonist activity at P2Y2 receptor in human HeLa cells assessed as intracellular calcium mobilization after 10 mins by Fluo-4 AM staining-based FLIPR assay; type: functional, cell-based
P2Y purinoceptor 2, sequence (P41231 whole entry): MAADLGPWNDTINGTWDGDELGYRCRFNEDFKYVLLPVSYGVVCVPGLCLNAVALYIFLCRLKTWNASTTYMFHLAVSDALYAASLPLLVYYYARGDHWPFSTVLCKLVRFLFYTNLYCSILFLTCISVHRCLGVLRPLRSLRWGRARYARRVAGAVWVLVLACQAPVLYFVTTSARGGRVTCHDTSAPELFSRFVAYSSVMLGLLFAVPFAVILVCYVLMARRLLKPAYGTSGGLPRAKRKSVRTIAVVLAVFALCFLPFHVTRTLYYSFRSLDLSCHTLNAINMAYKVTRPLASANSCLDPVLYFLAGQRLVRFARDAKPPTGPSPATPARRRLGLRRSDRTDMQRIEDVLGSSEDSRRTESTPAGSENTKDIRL

Rattus norvegicus [15] = assay: Ex vivo antiplatelet activity in Sprague-Dawley rat assessed as inhibition of […] uM ADP-induced platelet aggregation at 0.2 mg/kg and 0.75 mg/kg/hr, iv after 60 mins relative to vehicle-treated control; type: functional
[16] = Aqueous solubility of the crystalline form of compound in phosphate buffer at pH 6.5; type: physicochemical
Rattus norvegicus [17] = assay: Antithrombotic activity in FeCl2-induced Sprague-Dawley rat carotid artery thrombosis model assessed as reduction of thrombus weight at 0.2 mg/kg and 0.75 mg/kg/hr, iv after 60 mins relative to vehicle-treated control; type: functional; design: scale not given: the % may be the effect or the level left
Rattus norvegicus [18] = assay: Antithrombotic activity in iv dosed FeCl2-induced Sprague-Dawley rat carotid artery thrombosis model assessed as increase in integrated blood flow measured over 60 mins; type: functional, organism-based
Rattus norvegicus [19] = assay: Ex vivo antiplatelet activity in Sprague-Dawley rat assessed as inhibition of […] uM ADP-induced platelet aggregation at 10 mg/kg, po after 60 mins relative to vehicle-treated control; type: functional; settings: 1 h
Rattus norvegicus [20] = assay: Induction of mesenteric bleeding time in iv dosed Sprague-Dawley rat measured over 10 mins; type: organism-based; settings: in vivo
[21] = Metabolic stability in rat liver microsomes assessed as compound remaining after 10 mins; type: ADME; settings: read-out: Stability
P2Y purinoceptor 12 = P2Y purinoceptor 12 (Homo sapiens, UniProt Q9H244); assay: Displacement of [33P]-2MeS-ADP from P2Y12 receptor (unknown origin) transfected in HEK293 cells after 1 hr by scintillation counting analysis; type: cell-based
P2Y purinoceptor 12, sequence (Q9H244 whole entry): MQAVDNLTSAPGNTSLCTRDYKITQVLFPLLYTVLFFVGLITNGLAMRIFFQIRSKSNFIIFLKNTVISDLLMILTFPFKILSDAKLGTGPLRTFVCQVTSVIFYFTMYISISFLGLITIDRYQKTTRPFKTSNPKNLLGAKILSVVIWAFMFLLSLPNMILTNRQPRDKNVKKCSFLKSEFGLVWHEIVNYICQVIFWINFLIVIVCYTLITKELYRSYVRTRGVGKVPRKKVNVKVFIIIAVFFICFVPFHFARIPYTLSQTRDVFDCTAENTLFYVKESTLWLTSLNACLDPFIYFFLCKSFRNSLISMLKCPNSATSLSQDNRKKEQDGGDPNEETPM

Rattus norvegicus [22] = assay: Antithrombotic activity in FeCl2-induced Sprague-Dawley rat carotid artery thrombosis model assessed as prevention of vascular occlusion at 10 mg/kg, po after 60 mins; type: functional, organism-based; design: dose 10 mg/kg
Rattus norvegicus [23] = assay: Ex vivo antiplatelet activity in Sprague-Dawley rat assessed as inhibition of […] uM ADP-induced platelet aggregation at 0.6 mg/kg and 2.25 mg/kg/hr, iv after 60 mins relative to vehicle-treated control; type: functional
[24] = Half life in dog at 0.2 mg/kg, po; type: ADME, organism-based, Canis lupus familiaris; design: dose 0.2 mg/kg, route oral; settings: in vivo
[25] = Partition coefficient, log P of the compound at pH 7 by reversed-phase HPLC method; type: physicochemical; settings: octanol/water
[26] = Clearance in rat at 0.5 mg/kg, iv administered as bolus dose; type: ADME, organism-based; design: dose 0.5 mg/kg, route intravenous; settings: in vivo
[27] = Total AUC in rat at 0.5 mg/kg, po; type: ADME, organism-based; design: time AUCmax, dose 0.5 mg/kg, route oral; settings: in vivo
Rattus norvegicus [28] = species: Rattus norvegicus; assay: Inhibition of rat sodium channel site-2 at 10 uM relative to control
Rattus norvegicus [29] = assay: Antithrombotic activity in FeCl2-induced Sprague-Dawley rat carotid artery thrombosis model assessed as reduction of thrombus weight at 3 mg/kg, po after 60 mins relative to vehicle-treated control; type: functional; design: scale not given: the % may be the effect or the level left
[30] = target: Opioid receptors; mu/kappa/delta (Homo sapiens, UniProt P41145+P41143+P35372); assay: Inhibition of opioid receptor (unknown origin)
Rattus norvegicus [31] = assay: Antithrombotic activity in iv dosed FeCl2-induced Sprague-Dawley rat carotid artery thrombosis model assessed as inhibition of arterial thrombus formation after 60 mins; type: functional, organism-based
[32] = Fraction unbound in rat; type: ADME, organism-based; settings: in vivo
Rattus norvegicus [33] = assay: Antithrombotic activity in FeCl2-induced Sprague-Dawley rat vena cava thrombosis model assessed as reduction of thrombus weight at 0.6 mg/kg and 2.25 mg/kg/hr, iv after 60 mins relative to vehicle-treated control; type: functional; design: scale not given: the % may be the effect or the level left
Rattus norvegicus [34] = assay: Antithrombotic activity in FeCl2-induced Sprague-Dawley rat carotid artery thrombosis model assessed as integrated blood flow at 10 mg/kg, po after 60 mins relative to vehicle-treated control; type: functional
[35] = Half life in rat at 0.5 mg/kg, iv administered as bolus dose and po; type: ADME, organism-based; design: dose 0.5 mg/kg, route oral; settings: in vivo
P2Y purinoceptor 1 [36] = target: T1, P2Y purinoceptor 1; assay: Antagonist activity at P2Y1 receptor in washed human platelets assessed as 1 uM 2-methylthio-ADP-induced calcium flux by FLIPR assay; type: functional
[37] = Fraction unbound in dog; type: ADME, organism-based, Canis lupus familiaris; settings: in vivo
[38] = Oral bioavailability in dog at 0.2 mg/kg; type: ADME, organism-based, Canis lupus familiaris; settings: in vivo
[39] = Fraction unbound in rabbit; type: ADME, organism-based, Oryctolagus cuniculus; settings: in vivo
[40] = Volume of distribution at steady state in rat at 0.5 mg/kg, iv administered as bolus dose; type: ADME, organism-based; design: dose 0.5 mg/kg, route intravenous; settings: in vivo, read-out: Vdss
[41] = Fraction unbound in mouse; type: ADME, organism-based; settings: in vivo
[42] = Metabolic stability in human liver microsomes assessed as compound remaining after 10 mins; type: ADME; settings: read-out: Stability
[43] = Volume of distribution at steady state in dog at 0.2 mg/kg, po and 0.1 mg/kg, iv; type: ADME, organism-based, Canis lupus familiaris; settings: in vivo, read-out: Vdss
HEK293 = assay: Selectivity ratio of IC50 for P2X1 receptor in HEK293 cells to IC50 for P2Y1 receptor in washed human platelets; type: cell-based
Rattus norvegicus [44] = assay: Antithrombotic activity in po dosed FeCl2-induced Sprague-Dawley rat carotid artery thrombosis model assessed as inhibition of arterial thrombus formation after 60 mins; type: functional, organism-based

## CC(C)(C)CN1CCC2(CC1)CN(c1ccccc1NC(=O)Nc1ccc(OC(F)(F)F)cc1)c1ccccc12
Rattus norvegicus [1]
  Activity: Dose-dependent effect
L-type calcium channel
  inhibition at 10 µM: 78%
[2]
  clearance: 0.318 L/h/kg
P2Y purinoceptor 1 [3]
  Ki: 0.0043 µM
Rattus norvegicus [4]
  Activity: 66%
Rattus norvegicus [5]
  Activity: 64%
Rattus norvegicus [6]
  Activity: Dose-dependent effect
[7]
  bioavailability: 32%
Rattus norvegicus [8]
  inhibition in vivo at 3 mg/kg: -48%
[9]
  Fu: < 0.1%
P2X purinoceptor 1
  IC50: 1.6 µM
Rattus norvegicus [10]
  Activity: >95%
Rattus norvegicus [11]
  fold change (FC): 2.7
Rattus norvegicus [12]
  Activity: -26%
Rattus norvegicus [13]
  Activity: Active
Rattus norvegicus [14]
  fold change (FC): 2.3
P2Y purinoceptor 2
  IC50: > 10 µM
Rattus norvegicus [15]
  inhibition (INH): -30%
[16]
  solubility: 4 µg/mL (≈ 7.24 µM)
Rattus norvegicus [17]
  Activity: -41%
Rattus norvegicus [18]
  Activity: Dose-dependent effect
Rattus norvegicus [19]
  inhibition in vivo at 10 mg/kg: -64%
Rattus norvegicus [20]
  Activity: Dose-dependent effect
[21]
  remaining at 10 min: 87%
P2Y purinoceptor 12
  IC50: > 20 µM
Rattus norvegicus [22]
  Activity: Active
Rattus norvegicus [23]
  inhibition (INH): -85%
[24]
  half-life: 9.7 h
[25]
  logP: > 6.2
[26]
  clearance: 0.546 L/h/kg
[27]
  AUC: 587 nM·h
Rattus norvegicus [28]
  inhibition: 88%
Rattus norvegicus [29]
  Activity: -45%
[30]
  IC50: 2.7 µM
Rattus norvegicus [31]
  inhibition: Dose-dependent effect
[32]
  Fu: < 0.1%
Rattus norvegicus [33]
  Activity: -54%
Rattus norvegicus [34]
  Activity: >95%
[35]
  half-life: 7.5 h
P2Y purinoceptor 1 [36]
  IC50: 0.0025 µM
[37]
  Fu: 0.2%
[38]
  bioavailability: 55%
[39]
  Fu: 0.1%
[40]
  Vd: 2.8 L/kg
[41]
  Fu: 0.2%
[42]
  remaining at 10 min: 89%
[43]
  Vd: 2.8 L/kg
HEK293
  Ratio IC50: > 600
Rattus norvegicus [44]
  inhibition: Dose-dependent effect
